In article PMC8987157, “Regioselective One-Pot Synthesis of Hydroxy-(S)-Equols Using Isoflavonoid Reductases and Monooxygenases and Evaluation of the Hydroxyequol Derivatives as Selective Estrogen Receptor Modulators and Antioxidants” (Frontiers in Bioengineering and Biotechnology, 2022):
Several values for one entry are separate records, joined by “and”; a condition that tells them apart may be missing. Identical values can stand only once.

How the values were obtained:
ERβ LBD = molecular target: T1, ERβ LBD (Homo sapiens, UniProt Q92731); assay: ERβ-SRC1 agonistic yeast two hybrid (Y2H) assay, β-galactosidase activity; format: cell-based; conditions: for β/α ratio of EC50^-1: ERβ over ERα, Y2H; for EC50: Y2H ERβ-SRC1, yeast L40, triplicates
T1 construct: LexA DBD-ERβ LBD (264–510); expressed in transfected cells; host or cells: Saccharomyces cerevisiae L40
T1 sequence (Q92731 264-510, one chain of several): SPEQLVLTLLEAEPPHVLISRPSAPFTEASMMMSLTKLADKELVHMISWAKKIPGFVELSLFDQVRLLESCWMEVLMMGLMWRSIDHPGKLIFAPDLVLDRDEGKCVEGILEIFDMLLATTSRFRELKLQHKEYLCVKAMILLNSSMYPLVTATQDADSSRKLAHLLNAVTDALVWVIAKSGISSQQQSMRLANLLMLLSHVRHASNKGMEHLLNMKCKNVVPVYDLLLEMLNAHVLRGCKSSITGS
Source text: (§1) Microbial strains. Cloning information and used primers for the construction of EcHpaBC and MaFMO encoded vectors are listed in Supplementary Table S1. […] Three EcHpaB mutants were made by site-directed mutagenesis using the listed overlapping primer-containing intended mutations. […] These sets of two vectors (pBTM116:LexA DBD-ERα LBD & pVP16:VP16 AD-(Gly4Ser)2-tSRC1 or pBTM116:LexA DBD-ERβ LBD & pVP16:VP16 AD-(Gly4Ser)2-tSRC1) were transformed in the L40 strains.
(§2) Yeast-two-hybrid assay. The transformed L40 strains were grown in synthetic leucine and tryptophan drop-out (SD L^−W^-) media. […] These plates were incubated at 30 °C with shaking of 1,000 rpm for overnight (∼20 h). After the incubation, the cultures were centrifuged, and the supernatants were discarded. In each well, 500 μL Z-buffer (60 mM Na2HPO4, 40 mM NaH2PO4, 10 mM KCl, and 1 mM MgSO4; pH 7.0) with 1 mM dithiothreitol (DTT) was filled and resuspended. 50 μL of each suspension was taken for OD600 measurement before chloroform treatment. (This value was not used for the measurement of the Miller unit.) Chloroform 50 μL was added to each 450 μL of the suspension, and the solution mixture was shaked for 1 min at 1,000 rpm to disrupt the cell membrane. The disrupted suspensions were kept still at room temperature for 2 min, and 50 μL aqueous aliquots were taken. In polystyrene flat-bottomed 96-well plate, each well was charged with 100 μL of Z-buffer with 1 mM DTT, 50 μL aqueous aliquot, and 50 μL of Z-buffer with 1 mM DTT and 0.4 mg/ml ortho-nitrophenyl-β-galactoside (ONPG). Initially, OD600 of all the wells was measured, and subsequently, OD420 of the same wells was measured for 30 min with a minute interval. […] E/E0=ε/1+10^n(log(EC50)−log([L])),
(§3) where E/E 0 is the normalized Miller unit and ε is the maximum response relative to E2 (ε(E2) = 1). [L] is the concentration of ligands and n is the Hill’s coefficient.

ERα LBD = molecular target: T2, ERα LBD (Homo sapiens, UniProt P03372); assay: ERα-SRC1 agonistic yeast two hybrid (Y2H) assay, β-galactosidase activity; format: cell-based; conditions: for EC50: Y2H ERα-SRC1, yeast L40, triplicates
T2 construct: expressed in transfected cells; host or cells: Saccharomyces cerevisiae L40
T2 sequence (P03372 312-595): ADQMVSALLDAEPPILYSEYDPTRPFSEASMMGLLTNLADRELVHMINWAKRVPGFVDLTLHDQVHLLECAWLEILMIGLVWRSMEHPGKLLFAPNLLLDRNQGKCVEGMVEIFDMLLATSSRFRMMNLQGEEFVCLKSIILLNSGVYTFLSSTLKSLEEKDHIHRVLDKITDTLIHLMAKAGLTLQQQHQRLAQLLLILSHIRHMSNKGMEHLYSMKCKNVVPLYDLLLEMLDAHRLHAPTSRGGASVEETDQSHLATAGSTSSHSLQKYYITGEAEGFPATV
T2 sequence (Q15788 613-773 partner limits assumed): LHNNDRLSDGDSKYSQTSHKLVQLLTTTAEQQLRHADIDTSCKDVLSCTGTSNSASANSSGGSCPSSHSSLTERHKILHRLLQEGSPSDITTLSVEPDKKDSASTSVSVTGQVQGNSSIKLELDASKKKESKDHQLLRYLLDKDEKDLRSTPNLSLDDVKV
Source text: as §1, §2, §3

[1] = DPPH radical scavenging assay
Protocol: DPPH radical scavenging assay. In each well of polystyrene flat-bottom 96-well plates, 200 μL of solution containing 0.1 mM 2,2-diphenyl-1-(2,4,6-trinitrophenyl)hydrazin-1-yl (DPPH) radical, 50% (v/v) MeOH, 10% (v/v) DMSO, specific amount of compounds, and 1x concentration of phosphate buffered saline (PBS) was made. The PBS was prepared with 4x concentration of its original recipe with pH 7.4 and diluted by adding 50 μL in the solution mixture. The plates were incubated at 37°C for 30 min. The OD520 and OD495 of incubated plates were measured. The radical scavenging activity was defined as (OD520/OD495)DMSO- OD520/OD495. (OD520/OD495)DMSO is the OD520/OD495 of the DMSO control without antioxidative compounds. The radical scavenging activity values were normalized with the value of the positive control (1 mM of L-ascorbic acid). The data were triplicated, and the average values were regressed using the following formula.
where E/E 0 is the normalized radical scavenging activity, [L] is the concentration of compounds, and n is the Hill’s coefficient, and EC50 is the value of effective concentration at E/E 0 = 0.5.

ERα = tested on: ERα; parameters: method as in Lee et al., 2017; conditions: ref Lee et al., 2017; cited from earlier work

SMILES	fold higher EC50 than (S)-equol (ERβ LBD; ERβ)	β/α ratio of EC50^-1 (ERβ LBD)	EC50 (ERβ LBD)	fold higher EC50 than (S)-equol (ERα LBD; ERα)	EC50 (ERα LBD)	antioxidative activity higher than 3′HD [1]	response in Y2H agonist assay (ERβ LBD; ERβ, concentrations in the range of 10^–8∼10^–3 M)	binding affinity ERα versus ERβ (ERα)	response in Y2H agonist assay (ERα LBD; ERα, concentrations in the range of 10^–8∼10^–3 M)	lower β/α ratio response than that of 17β-estradiol (ERβ LBD) [%]	weaker estrogenic activity than E2 (ERβ LBD; ERβ)	weaker estrogenic activity than E2 (ERα LBD; ERα)
Oc1ccc2c(c1)OC[C@H](c1ccc(O)c(O)c1)C2 [3'-hydroxy-(S)-equol, 3′-hydroxy-(S)-equol]	30∼200 fold	1.15	10 to 100 µM and 17.9 µM	30∼200 fold	10 to 100 µM and 20.6 µM	more than 40%	–	–	–	–	–	–
Oc1ccc([C@H]2COc3cc(O)cc(O)c3C2)cc1 [5-hydroxy-(S)-equol]	–	–	–	–	–	–	did not show any response	higher binding affinity to ERα than ERβ	did not show any response	–	–	–
Oc1ccc([C@H]2COc3cc(O)c(O)cc3C2)cc1 [6-hydroxy-(S)-equol]	30∼200 fold	1.00	10 to 100 µM and 102 µM	30∼200 fold	10 to 100 µM and 102 µM	–	–	–	–	10	–	–
Oc1ccc([C@H]2COc3cc(O)ccc3C2)cc1 [(S)-equol]	–	1.31	0.506 µM	–	0.665 µM	–	–	–	–	–	about 3 orders of magnitude	about 3 orders of magnitude
